Test system: clot formation in vessels of the mesenterium
Assay: electrically induced clot formation in mesenteric vein, clot size monitored by intravital microscope
Assay type: in vivo, rat
Settings: 2.5 mg/kg acetylsalicylic acid or 5 mg/kg dipyridamole p.o. alone; FIGS. 5 and 6
Procedure: The antithrombotic activity achieved with a simultaneous oral administration, according to the invention, of 5 mg/kg of dipyridamole and 0.05 mg/kg of acetylsalicylic acid (weight ratio of dipyridamole to acetylsalicylic acid=100) and, by comparison, during sequential oral administration (according to European Application No. 85 108 761.9) of 5 mg/kg of dipyridamole and 5 mg/kg of acetylsalicylic acid to rats (FW 49) with a body weight of from 60 to 80 g before the start of the experiment was investigated by applying a clotting stimulus to vessels of the mesenterium and by monitoring the size of the clots over a period of time. Groups of 5 animals were used. […] An interval of 1 hour was left between the simultaneous oral administration of the substances according to the invention and the application of the clot or the actual carrying out of the measurements. […]
Using an intravital microscope to monitor the process, a platinum electrode was placed on an outer blood vessel wall of the mesenterium. […] The size of the clot is measured at 10 second intervals and later at 30 second intervals over a period of up to 20 minutes after the stimulation of the blood vessel and is given as the size of the clot (at right angles to the blood vessel wall) as a percentage of the internal diameter of the blood vessel.

Row | SMILES | reduction in the clot size, single substance
1 | CC(=O)Oc1ccccc1C(=O)O [Acetylsalicylic acid, acetylsalicylic acid] | do not bring about any significant reduction in the clot size
2 | OCCN(CCO)c1nc(N2CCCCC2)c2nc(N(CCO)CCO)nc(N3CCCCC3)c2n1 [Dipyridamole, 2,6-bis-(diethanolamino)-4,8-dipiperidino-(5,4-d)-pyrimidine] | do not bring about any significant reduction in the clot size

— US6015577A, “Pharmaceutical compositions containing dipyridamole or mopidamol and acetylsalicylic acid or the physiologically acceptable salts thereof, processes for preparing them and their use in treating clot formation” (Thomae GmbH; Dr. Karl, priority 1986, dated 2000)
